# Laboratory results: PubChem BioAssay AID504313 (Emory University Molecular Libraries Screening Center, 2011)
# The source made the active and inactive calls. How the calls were made is not given here.
# Molecular target: X-box-binding protein 1 (Homo sapiens) (UniProt P17861)
# Assay: inhibitors of XBP1 reporter signal, dose response, counter-screen, cell-based (AID 504313);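 further: CHO cells carrying an XBP1 reporter stimulated with tunicamycin; potency is for inhibition of the tunicamycin-induced reporter signal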
# Conditions: XBP1 reporter cell assay, percent of control
row,Compound,IC50
1,CCN=C1NN=C(c2cc(C)n(Cc3ccco3)c2C)CS1,< 0.16 µM
2,CC(C)(C)OC(=O)N[C@@H](Cc1ccccc1)c1nnc(S(=O)(=O)Cc2ccccc2)o1,inactive
3,Cc1ccc(C)c(NC(=S)NC(NC(=O)/C=C/c2ccccc2)C(Cl)(Cl)Cl)c1 (configuration not stated),> 10 µM (inactive)
4,COc1ccc(Cn2c(C)c(C)c(C#N)c2NC(=O)Nc2ccc(Cl)cc2)cc1,> 10 µM (inactive)
5,Cc1ccc(-n2c(Cl)c(Cl)nc(Cl)c2=O)cc1,2.32 µM
6,CCOc1ccc(-c2nc(CSCC(=O)NCc3ccco3)c(C)o2)cc1,< 0.16 µM
7,FC(F)(F)c1cccc(NC(=S)NC(c2ccccc2)c2ccccc2)c1,> 10 µM (inactive)
8,Cc1ccccc1CS(=O)(=O)c1nnc([C@H](Cc2ccccc2)NC(=O)OC(C)(C)C)o1,inactive
9,O=C1C(=C2SCCCS2)CC/C1=C\c1ccc(F)cc1,3.13 µM
10,CCSCCc1nnc(NC(=O)Nc2cccc(C(F)(F)F)c2)s1,4.74 µM
11,CCc1ccc(-c2nc(CN3CCC(C(=O)NCCN(CC)c4ccccc4)CC3)c(C)o2)cc1,> 10 µM (inactive)
12,CC1=C(C)/C(=N\OS(=O)(=O)c2ccc(C)cc2)C=CC1=O,1.63 µM
13,C/C(=N\NC(=O)c1nn(C)c(C)c1Br)c1ccc(NC(=O)c2ccoc2C)cc1,> 10 µM (inactive)
14,CCCCS(=O)(=O)/C=C\C=C/S(=O)(=O)CCCC,2.68 µM
15,CCOC(=O)C1=C(c2ccccc2)O/C(=C(/C#N)C(F)(F)F)S1,> 10 µM (inactive)
16,CCc1ccc(-c2cc(C(=O)N3N=C(C(F)F)CC3(O)C(F)F)c3ccccc3n2)cc1 (configuration not stated),inactive
17,CC(C)(C)C(=O)NC(=S)NNC(=O)C(c1ccccc1)c1ccccc1,> 10 µM (inactive)
18,O=C(NNc1ccccc1Br)C(O)(c1cccc(C(F)(F)F)c1)c1cccc(C(F)(F)F)c1,inactive
19,CCOC(=O)c1c(-n2c(C)cc(C=C3C(=O)NC(=S)NC3=O)c2C)sc2c1CCCC2,inactive
20,O=C(CN1CCN(c2ncc(C(F)(F)F)cc2Cl)CC1)NCCNc1ncc(C(F)(F)F)cc1Cl,inactive
21,CCCOC(=O)c1ccc(Oc2cn[nH]c2-c2ccc(OC)cc2O)cc1,4.82 µM
22,CNC(=O)c1nnsc1S(=O)(=O)c1ccc(Cl)cc1,inactive
23,O=C(Nc1ccc(Br)c(C(F)(F)F)c1)c1ccc(C(F)(F)F)cc1,5.44 µM
24,N#CC1=C(N)N2C(=C(C#N)C1c1cccc(Br)c1)Nc1ccccc12 (configuration not stated),inactive

row,Compound,IC50
1,Cc1ccn2cc(-c3cc4ccccc4oc3=O)nc2c1,inactive
2,FC(F)(F)c1cccc(NC(=S)N2CCN(c3cccc(C(F)(F)F)c3)CC2)c1,4.52 µM
3,CCCC(=O)OCCNc1cc(Sc2nc3ccccc3[nH]2)c2nonc2c1[N+](=O)[O-],inactive
4,CCSc1nc2ccccc2n1C(=O)/C=C\c1ccc(OC)c(OC)c1,4.66 µM
5,O=C(COc1ccc(Cl)cc1Cl)Nc1ccccn1,inactive
6,COc1ccc2c(C)nc(Nc3nc(C)c(C)c(=O)[nH]3)nc2c1,< 0.16 µM
7,Cc1cccc(/C=C/C(=O)c2cc(Br)ccc(=O)c2O)c1,> 10 µM (inactive)
8,CCCOc1ccc(Cc2c(Cl)nc(SC)nc2NC)cc1,> 10 µM (inactive)
9,Cc1ccc(/C=C2\SC(=S)N(CCCC(=O)Nc3ccc(O)cc3)C2=O)cc1,< 0.16 µM
10,O=C(Nc1ccccc1Cl)c1ccccc1Oc1ccc(C(F)(F)F)cc1[N+](=O)[O-],inactive
11,Cc1cc(C)c(S(=O)(=O)ON2C(=O)c3ccccc3C2=O)cc1C,> 10 µM (inactive)
12,OCCCNc1cc(-c2ccnc(Nc3cccc(Cl)c3)n2)ccn1,< 0.16 µM
13,Cc1cc(/C=N/n2cnnc2)c(C)n1-c1ccc(OCc2ccc(Cl)cc2)cc1,0.56 µM
14,O=C(c1nnsc1S(=O)(=O)c1ccc(Cl)cc1)N1CCOCC1,inactive
15,COc1cccc(NC(=O)CSc2nnc(-c3cc(C)n(-c4ccccc4)c3C)o2)c1,0.41 µM
16,CC(C)c1ccc(O)c(NC(=S)NC(=O)CCc2ccccc2)c1,inactive
17,Cc1nn(C(C)(C)C)c(C)c1/C=N/OC(=O)Nc1ccc(Cl)cc1,< 0.16 µM
18,NC(=O)CC(NC(=O)Cc1cccc2ccccc12)c1ccc(NCCOc2ccccc2)c([N+](=O)[O-])c1 (configuration not stated),> 10 µM (inactive)
19,CCOC(=O)c1sc(N=Nc2c(O)[nH]c(=O)[nH]c2=O)c(C(=O)OCC)c1C,> 10 µM (inactive)
20,O=C1C(N2CCOCC2)=C(n2nnc3ccccc32)C(=O)c2ccccc21,inactive
21,O=[N+]([O-])c1ccc(-c2nc(C(Cl)Cl)c3ccccc3n2)cc1,1.34 µM
22,O=C(NCCNC(=O)c1cc(OCC(F)(F)F)ccc1OCC(F)(F)F)Nc1cccc(C(F)(F)F)c1,> 10 µM (inactive)
23,O=C(NCc1nc(-c2ccc(C(F)(F)F)cc2)no1)Nc1ccc(OC(F)(F)F)cc1,4.26 µM
24,Cc1ccc(Cl)cc1NC1=C/C(=N\S(=O)(=O)c2cccs2)c2ccccc2C1=O,inactive

row,Compound,IC50
1,CC1=NN(c2nc(-c3ccc(C)cc3)cs2)C(=O)C1N=Nc1ccccc1O (configuration not stated),inactive
2,O=[N+]([O-])c1c(NCCCO)cc(Sc2nc3ccccc3s2)c2nonc12,inactive
3,Cc1ccc(Nc2nc(N)c([N+](=O)[O-])c(N3CCC(C)CC3)n2)cc1C,inactive
4,Cc1ccc(-n2ncc(Br)c(Br)c2=O)cc1,inactive
5,C=CCc1cc(C)ccc1OCC(O)CN1CCN(c2ccccc2)CC1 (configuration not stated),inactive
6,CCOc1ccc(C(=O)C(CCC(CN(C)C)C(=O)c2ccc(OCC)cc2)CN(C)C)cc1 (configuration not stated),inactive
7,CCc1ccc2[nH]c(=O)c(C(c3nnnn3Cc3ccco3)N3CCC(C)CC3)cc2c1 (configuration not stated),> 10 µM (inactive)
8,O=C(OCn1ncc(Cl)c(Cl)c1=O)c1cccc(C(F)(F)F)c1,inactive
9,Cc1ccc(-c2[nH]ncc2/C=N/n2c(COc3ccccc3)nc3ccccc3c2=O)cc1,inactive
10,O=C(c1ccc(COc2ccc(Cl)cc2)o1)N1N=C(C(F)F)CC1(O)C(F)F (configuration not stated),inactive
11,N#C/C(=C\c1ccc([N+](=O)[O-])o1)c1nc2ccccc2[nH]1,4.83 µM
12,O=C(Nc1ccccc1NC(=O)NC1CCCCC1)NC1CCCCC1,inactive
13,CCCCCCCCCCCCCCCC[n+]1cccc2ccccc21,< 0.16 µM (inactive)
14,OCCCNc1nccc(-c2cc(Nc3cccc(Cl)c3)ncn2)n1,0.3 µM
15,Oc1ccc(/C=N/N2CCN(C3c4ccccc4-c4ccccc43)CC2)c(O)c1,> 10 µM (inactive)
16,COc1ccc(/C=N\NC(=O)COc2ccc(C(C)(C)C)cc2)cc1Cn1nc(C)cc1C,inactive
17,Cc1ccc(N(c2ncnc(N)c2[N+](=O)[O-])C2CCCCC2)cc1,> 10 µM (inactive)
18,COc1oc(-c2ccc(Cl)cc2)nc1C(F)(F)F,inactive
19,COc1ccc(C(C(=O)NC2CCCCC2)N(C(=O)CCl)c2cccc(Cl)c2)cc1 (configuration not stated),inactive
20,NC(=S)n1[nH]c(-c2ccc([N+](=O)[O-])cc2)c(N=Nc2cccc([N+](=O)[O-])c2)c1=O,inactive
21,COc1ccc(-c2[nH]ncc2N=Nc2cc(C)cc(C)c2)cc1,> 10 µM (inactive)
22,CC1(c2ccccc2)CC(C)(C)n2c(O)c(C3=NC(=S)NC3=O)c3cccc1c32 (configuration not stated),> 10 µM (inactive)
23,CC(C)(C)C1C/C(=C/c2ccccn2)C(=O)/C(=C/c2ccccn2)C1 (configuration not stated),0.55 µM
24,CCOC(=O)/C=C/S(=O)(=O)c1ccc(NC(C)=O)cc1,inactive
